Measured values as given in publication PMC5365645, “Preclinical Pharmacokinetics and Pharmacodynamic Target of SCY-078, a First-in-Class Orally Active Antifungal Glucan Synthesis Inhibitor, in Murine Models of Disseminated Candidiasis” (Antimicrobial Agents and Chemotherapy, 2017).
Where two headings read alike, the source gives them in different places.

Assays:
C. albicans CLY18600 = test: Single delayed-dose treatment model of disseminated candidiasis; type: in vivo, mice; settings: single dose 16 h after infection, tissue burden 96 h after treatment, regression analysis
[1] = In vitro metabolic stability in hepatic microsomes; type: in vitro ADME, mouse; settings: for remaining at 0.5 h, 1 µM: read-out: % remaining after 30 min; for half-life at 1 μM / microsomal CLint at 1 μM: pooled liver microsomes
Procedure: (§1) The metabolic stability of SCY-078 was assessed after incubation with mouse, rat, dog, and human liver microsomes (Table 2) ([10]). […] The half-lives in rodent, dog, and human liver microsomes were ≥125, ≥29, and ≥42 min, respectively.
(§2) The metabolic stability of SCY-078 was evaluated with male and female mouse, male rat, male and female dog, and mixed-gender human liver microsomes (XenoTech, Lenexa, KS). SCY-078 (1 μM) was incubated with pooled liver microsomes (0.5 mg protein/ml) for 0, 5, 10, 20, and 30 min at 37°C in the presence of NADPH. Aliquots were taken at each sampling time point and extracted with 5 volumes of ice-cold acetonitrile containing the internal standard (d9-SCY-078, 125 ng/ml). Supernatants from the incubation mixtures were analyzed for the parent compound by LC-MS/MS according to the conditions described below. The metabolic competency of microsomal preparations was established using the control compounds 7-ethoxycoumarin, propranolol, and verapamil. The in vitro intrinsic clearance (CLint), the CLint scaled to the in vivo intrinsic clearance (CL′int), and the half-life were determined for SCY-078 incubated with microsomes from each species.

[2] = In vitro metabolic stability in hepatic microsomes; type: in vitro ADME; settings: for remaining at 0.5 h, 1 µM: read-out: % remaining after 30 min
Procedure: as §1, §2

[3] = Plasma protein binding by equilibrium dialysis; type: in vitro ADME; settings: pH 7.4
Procedure: (§3) Protein binding of [^3H]SCY-078 in mouse, rat, dog, and human plasma was determined by means of equilibrium dialysis and liquid scintillation counting. Tritium-labeled SCY-078 in ethanol was added to unlabeled SCY-078 in methanol to prepare stock solutions at 10, 100, and 1,000 μM SCY-078 with constant activity.
Protein binding was determined against isotonic phosphate-buffered saline (pH 7.4) at 37°C for 24 h. Aliquots (10 μl) of each stock solution were added to pooled DBA mouse (n = >10 animals), Sprague-Dawley rat, beagle dog, or human plasma (1 ml) to achieve final total concentrations of 0.1, 1, and 10 μM SCY-078. The final concentration of the organic solvent was 0.9% (vol/vol). Dialysis was performed in 1-ml acrylic dialysis cells (Scienceware, South Wayne, NJ), where plasma and buffer were separated by a 12.4-kDa cutoff membrane (Sigma, St. Louis, MO). After incubation, aliquots (100 μl) of plasma and phosphate buffer were counted for radioactivity (Beckman LS6500 liquid scintillation counter), and unbound fractions of SCY-078 were estimated based on the following calculation: unbound fraction = radioactivity (dpm/0.1 ml) in buffer/total radioactivity (dpm/0.1 ml) in plasma.

[4] = Plasma protein binding by equilibrium dialysis, across species; type: in vitro ADME, and human; settings: DBA (mouse), Sprague-Dawley (rat), beagle (dog), human, pH 7.4, range across species, 0.1 to 10 μM
Procedure: In vitro reversible protein binding and blood/plasma partition ratio were determined for SCY-078 in mouse, rat, dog, and human plasma and whole blood (Table 3). […] The unbound fraction of SCY-078 in plasma determined by means of equilibrium dialysis was 0.2 to 0.5% (99.8 to 99.5% bound) and appeared to be independent of concentration over the range studied (0.1 to 10 μM). Within the limitations of the assay method, binding perhaps appeared modestly higher in rodent plasma than in dog or human plasma; however, the study was not powered to identify differences between species.
as §3
Protein binding was determined against isotonic phosphate-buffered saline (pH 7.4) at 37°C for 24 h. […] After incubation, aliquots (100 μl) of plasma and phosphate buffer were counted for radioactivity (Beckman LS6500 liquid scintillation counter), and unbound fractions of SCY-078 were estimated based on the following calculation: unbound fraction = radioactivity (dpm/0.1 ml) in buffer/total radioactivity (dpm/0.1 ml) in plasma.

in vivo = test: in vivo; parameters: species or system beagle dogs; settings: beagle, dog; for half-life: t1/2
Procedure: The pharmacokinetics and bioavailability of SCY-078 were evaluated in uninfected mouse, rat, and dog after p.o. and i.v. administration. The in vivo phases of the PK studies were performed at either […] (Waltham, MA) or MPI Research (Mattawan, MI) after an Institutional Animal Care and Use Committee (IACUC) review. […] and MPI Research are Association for Assessment and Accreditation of Laboratory Animal Care International (AAALAC)-approved facilities. […] The peak concentration (Cmax), the time to maximum concentration (Tmax), the half-life, and the AUC were determined from composite mean plasma concentration-time data for rodents and individual plasma concentration-time data for dogs. All doses and plasma concentrations of SCY-078 are presented as free base. Treatment naive male and female beagle dogs (n = 3/sex/group/time point) weighing 8 to 12 kg (males) or 6 to 10 kg (females) were given a single 5-mg/kg dose of SCY-078 as an i.v. injection over 5 min or an oral dose of 20 mg/kg as described above. Blood specimens were collected from the jugular vein at various time intervals to 72 h postdosing and processed as described above.

[5] = tested on: C. glabrata isolate CG 5592; parameters: method as in PMID 25512406; settings: stasis ref 6; cited from earlier work
[6] = tested on: C. parapsilosis isolate CP 20519.069; parameters: method as in PMID 25512406; settings: stasis ref 6; cited from earlier work
[7] = Biological distribution to kidney tissue after oral delivery; settings: for Time to which concentrations would remain measurable in kidney: after dose 13, predicted from elimination rate constant
Procedure: Female CD-1 mice (n = 5/sex/time point/group) weighing approximately 25 g were administered SCY-078 by oral gavage either once daily or as multiple twice-per-day (Q12h) treatments, with individual doses ranging between 3 and 100 mg/kg (6 to 150 mg/kg/day). Mice also received a single 1-mg/ml i.v. dose of SCY-078. Plasma specimens were collected prior to dosing and at 0.25, 0.5, 1, 2, 4, 6, 9, 12, 18, 24, 36, 48, and 60 h after the single i.v. dose and at the same time points from 1 h postdose onward following oral dose 13 on day 7 of treatment. On the first day of oral treatment, plasma specimens were collected immediately before each of the two doses and 1, 2, 4, 6, 9, and 12 h postdosing. […] Kidney tissues were collected at 2, 4, 12, 24, 36, 48, and 60 h after oral dose 13 on treatment day 7, blotted dry, and stored at approximately −80°C until analysis.
On the day of analysis, either treatment-naive (drug-free) kidney tissue or freshly thawed tissue samples from PK studies were weighed and homogenized in 3 volumes of phosphate-buffered saline. The density of kidney tissue used for the determination of volume was assumed to be 1.0 g/ml.
Whole-kidney tissue samples were homogenized in parallel by means of a Precellys 24 bead mill homogenizer (Bertin Technologies, Montigny le Bretonneux, France) using 2-ml Precellys tubes containing 1.4-mm-diameter ceramic beads (CK14) and a single 15-s cycle of 5,500 rpm. Parallel bead homogenization increased throughput and avoided potential cross-contamination of samples since each sample was wholly contained and homogenized within its own sealed vial with no direct contact between the homogenizing instrument or other samples.
Mouse plasma (50 μl) or kidney tissue homogenate (50 μl) was treated with 5 volumes of acetonitrile containing 50 ng of deuterium (d9)-labeled SCY-078 internal standard/ml to precipitate proteins. Treated samples were mixed on a 96-well plate shaker for ∼30 min and then centrifuged at approximately 4,000 × g and 15°C for 15 min. Supernatants were transferred to fresh 96-well plates for analysis by LC-MS/MS.

C. albicans MY1055 = test: Single delayed-dose treatment model of disseminated candidiasis; settings: single dose 16 h after infection, tissue burden 96 h after treatment, regression analysis
Procedure: Next, a single-dose treatment with SCY-078 was administered. The target endpoint for efficacy in this model was defined as a static effect on the tissue burden measured 96 h after treatment.
For the single delayed-dose treatment model, a single dose of SCY-078 was administered 16 h after infection. The target endpoint for efficacy in this model was a static effect on the tissue burden measured at 96 h posttreatment.

[8] = both sexes, human, pooled liver microsomes, human (mixed) liver microsomes
[9] = pooled liver microsomes, male rat liver microsomes
[10] = kidney, 12 mg/kg oral, dose 13 day 7

For `CC(C)[C@@H](C)[C@@]1(C)CC[C@]2(C)[C@H]3CC[C@@H]4[C@@]5(COC[C@@]4(C)[C@@H](OC[C@](C)(N)C(C)(C)C)[C@H](n4ncnc4-c4ccncc4)C5)C3=CC[C@@]2(C)[C@@H]1C(=O)O` [SCY-078, (1S,4aR,6aS,7R,8R,10aR,10bR,12aR,14R,15R)-15-[[(2R)-2-amino-2,3,3-trimethylbutyl]oxy]-8-[(1R)-1,2-dimethylpropyl]-14-[5-(4-pyridinyl)-1H-1,2,4-triazol-1-yl]-1,6,6a,7,8,9,10,10a,10b,11,12,12a-dodecahydro-1,6a,8,10a-tetramethyl-4H-1,4a-propano-2H-phenanthro[1,2-c]pyran-7-carboxylic acid], the “Dose achieving stasis endpoint” value (C. albicans CLY18600) was 8.97 mg/kg, the remaining at 0.5 h, 1 µM ([1]; female mouse liver microsomes) was 88% and the remaining at 0.5 h, 1 µM ([1]; male mouse liver microsomes) was 95%. For the same molecule, the half-life at 1 μM ([1]; female mouse liver microsomes) was > 2.25 h, the microsomal CLint at 1 μM ([1]; female mouse liver microsomes) was < 10 µL/min/mg and the half-life at 1 μM ([1]; male mouse liver microsomes) was > 2.25 h. For the same molecule, the microsomal CLint at 1 μM ([1]; male mouse liver microsomes) was < 10 µL/min/mg, the half-life at 1 μM [2, 8] was ≥ 0.7 h and the microsomal CLint at 1 μM [2, 8] was 34 µL/min/mg. The remaining at 0.5 h, 1 µM ([2]; both sexes, pooled liver microsomes, human (mixed) liver microsomes) was 61%, the CLint ([2]; human (mixed) liver microsomes) was 33 µL/min/mg and the remaining at 0.5 h, 1 µM ([2]; male rat liver microsomes) was 84%. For the same molecule, the half-life at 1 μM [2, 9] was 2.08 h, the microsomal CLint at 1 μM [2, 9] was 11 µL/min/mg and the fraction unbound at 24 h ([3]; DBA, mouse plasma) was 0.002. The fraction unbound at 24 h, 0.1 μM ([3]; DBA, mouse plasma) was 0.002, the fraction unbound at 24 h, 1 μM ([3]; DBA, mouse plasma) was 0.002 and the fraction unbound at 24 h, 10 μM ([3]; DBA, mouse plasma) was 0.002. For the same molecule, the fraction unbound at 24 h, 0.1 μM ([3]; Sprague-Dawley, rat plasma) was 0.002, the fraction unbound at 24 h, 1 μM ([3]; Sprague-Dawley, rat plasma) was 0.003 and the fraction unbound at 24 h, 10 μM ([3]; Sprague-Dawley, rat plasma) was 0.002. For the same molecule, the fraction unbound at 24 h, 0.1 μM ([3]; beagle, dog plasma) was 0.004, the fraction unbound at 24 h, 1 μM ([3]; beagle, dog plasma) was 0.005 and the fraction unbound at 24 h, 10 μM ([3]; beagle, dog plasma) was 0.003. For the same molecule, the fraction unbound at 24 h, 0.1 μM ([3]; human plasma) was 0.002, the fraction unbound at 24 h, 1 μM ([3]; human plasma) was 0.003 and the fraction unbound at 24 h, 10 μM ([3]; human plasma) was 0.004. It also gave a fraction unbound at 24 h [4] of 0.002 to 0.005, an AUC(0-inf) (in vivo; both sexes, iv, 5 mg/kg) of 11900 ± 2200 ng·h/mL and an AUC(0-t) (in vivo; both sexes, iv, 5 mg/kg) of 10400 ± 1900 ng·h/mL. It also gave a Vd (in vivo; both sexes, iv, 5 mg/kg) of 5.1 L/kg, a clearance (in vivo; both sexes, iv, 5 mg/kg) of 7.5 mL/min/kg and a half-life (in vivo; both sexes, iv, 5 mg/kg) of ~9.3 h. For the same molecule, the AUC(0-inf) (in vivo; both sexes, po, 20 mg/kg) was 16000 ng·h/mL, the AUC(0-t) (in vivo; both sexes, po, 20 mg/kg) was 11500 ng·h/mL and the Cmax (in vivo; both sexes, po, 20 mg/kg) was 810 ± 420 ng/mL. The Tmax (in vivo; both sexes, po, 20 mg/kg) was 4 ± 2 h, the bioavailability (in vivo; both sexes, po, 20 mg/kg, Bioavailability) was ~35% and the half-life (in vivo; both sexes, po, 20 mg/kg) was ~15.2 h. For the same molecule, the “Dose normalized AUC0–∞ to a 1-mg/kg dose” value (in vivo; both, iv) was ~2.4 µg·h/mL, the t1/2 (in vivo; both, iv, 5 mg/kg) was 9.3 h and the “Total drug AUC0–24 target” value [5] was ~18.8 µM·h. The “Total drug AUC0–24 target” value [6] was ~18.8 µM·h, the “Time to which concentrations would remain measurable in kidney” value ([7]; 6.25 mg/kg) was “approximately 100 h” and the “Time to which concentrations would remain measurable in kidney” value ([7]; 12 mg/kg) was ~115 h. The “AUC0–24” value ([7]; kidney, 6.25 mg/kg oral, dose 13 day 7) was 195000 ng·h/mL, the “AUC0–24” value [7, 10] was 553000 ng·h/mL and the half-life [7, 10] was 8.6 h. The “Dose achieving stasis endpoint” value (C. albicans MY1055) was 10.28 mg/kg.
